The assay concerns KARN cells (Jurkat 2C4). Kind of assay: cells. It is filed as cell-based. To be noted: Homo sapiens, Jurkat. In a few lines:
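Luminescence (Steady-Glo, 10 min, room temperature) measured next day in KARN Jurkat 2C4 cells given compounds at up to 40 μM final with 0.4% DMSO. Percent activation normalised to DMSO (0%) and 2 μM SAHA (100%), fitted by 4-parameter curve.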

The mark [1] stands for this setting: read-out: Karn EC50 (nM) 0.1% NHS, 0.1% normal human serum.
[2] abbreviates: read-out: Karn EC50 (nM) 5% NHS, 5% normal human serum.

Read-outs that look alike come from different tables or passages of the source.

Regarding `CCN1CCC2(CC1)C[C@@H]2C(=O)N[C@@H](CCCCCC(=O)CC1CCC1)c1ncc(-c2cc3ccc(C)nc3cc2OC)o1` [Compound 184], the concentration for a half-maximal effect (EC50) under setting [1] was found to be 1630 nM and the EC50 under setting [2] came out at 2760 nM.

On to `COc1cc2nc(C)ccc2cc1-c1cnc([C@H](CCCCCC(=O)CC2CCC2)NC(=O)[C@H]2CC23CCN(C)CC3)o1` [Compound 185], for which the EC50 was found to be 1330 nM under setting [1] and 2960 nM under setting [2].

In the case of `CCC(=O)CCCCC[C@H](NC(=O)[C@H]1CC12CCN(CC)CC2)c1ncc(-c2cc3nn(C)cc3cc2OC)o1` [Compound 189], the EC50 was found to be 282 nM under setting [1] and 300 nM under setting [2].

Take `CCC(=O)CCCCC[C@H](NC(=O)[C@H]1CC12CCN(C)CC2)c1nnc(-c2cc3ccc(C)nc3cc2OC)o1` [Compound 191]: the EC50 under setting [1] is 366 nM and the EC50 under setting [2] amounted to 343 nM.

Take `CCC(=O)CCCCC[C@H](NC(=O)C1=NOC2(CCN(C)CC2)C1)c1ncc(-c2cc3ccc(=O)n(C)c3cc2OC)o1` [Compound 193]: the half-maximal effective concentration (EC50) is, setting by setting: under setting [1], 284 nM; under setting [2], 297 nM.

Consider `COc1cc2nc(C)ccc2cc1-c1cnc([C@H](CCCCCC(=O)CC2CC2)NC(=O)[C@H]2CC23CCN(C)CC3)o1` [Compound 195, (1S)—N-{(1S)-8-cyclopropyl-1-[5-(7-methoxy-2-methylquinolin-6-yl)-1,3-oxazol-2-yl]-7-oxooctyl}-6-methyl-6-azaspiro[2.5]octane-1-carboxamide], for which the half-maximal effective concentration (EC50) by setting is: under setting [1], 163 nM; under setting [2], 216 nM.

`CCC(=O)CCCCC[C@H](NC(=O)C1=NOC2(CCN(C)CC2)C1)c1ncc(-c2cc3ccc(C)nc3cc2OC)o1` [Compound 196]: the concentration for a half-maximal effect (EC50) by setting is: under setting [1], 154 nM; under setting [2], 162 nM.

On to `CCC(=O)CCCCC[C@H](NC(=O)[C@H]1CC12CCN(C)CC2)c1ncc(-c2cc3ccc(=O)n(C)c3cc2OC)o1` [Compound 198], for which the EC50 under setting [1] stood at 147 nM and the concentration giving a half-maximal response (EC50) under setting [2] amounted to 176 nM.

In the case of `CCC(=O)CCCCC[C@H](NC(=O)[C@H]1CC12CCN(CC1CC1)CC2)c1ncc(-c2cc3ccc(=O)n(C)c3cc2OC)o1` [Compound 199], the half-maximal effective concentration (EC50) reads like this: under setting [1], 62 nM; under setting [2], 83 nM.

Regarding `CCN1CCC2(CC1)C[C@@H]2C(=O)N[C@@H](CCCCCC(=O)CC1CC1)c1ncc(-c2ccc(F)cc2)[nH]1` [Compound 201], the EC50 is, setting by setting: under setting [1], 359 nM; under setting [2], 403 nM.

For the compound `CCC(=O)CCCCC[C@H](NC(=O)C1=NOC2(CCN(CC)CC2)C1)c1ncc(-c2cc3ccc(C)nc3cc2OC)o1` [Compound 204], the EC50 is 165 nM under setting [1] and 152 nM under setting [2].

In the case of `CCC(=O)CCCCC[C@H](NC(=O)C1=NOC2(CCN(CC)CC2)C1)c1ncc(-c2cc3ccc(C)nc3cc2OC)[nH]1` [Compound 207], the EC50 is 55 nM under setting [1] and 58 nM under setting [2].

With `CCC(=O)CCCCC[C@H](N)c1ncc(-c2cc3ccc(C)nc3cc2OC)[nH]1` [Compound 209, (S)-9-amino-9-(5-(7-methoxy-2-methylquinolin-6-yl)-1H-imidazol-2-yl)nonan-3-one], the concentration for a half-maximal effect (EC50) is, setting by setting: under setting [1], 1440 nM; under setting [2], 4950 nM.

Regarding `CCC(=O)CCCCC[C@H](NC(=O)[C@H]1CC12CCN(CC)CC2)c1nc(-c2cc3ccc(C)nc3cc2OC)cn1COC(=O)C(C)(C)C` [Compound 215, {2-[(1S)-1-({[(1S)-6-ethyl-6-azaspiro[2.5]oct-1-yl]carbonyl}amino)-7-oxononyl]-4-(7-methoxy-2-methylquinolin-6-yl)-1H-imidazol-1-yl}methyl 2,2-dimethylpropanoate], the EC50 reads like this: under setting [1], 93 nM; under setting [2], 93 nM.

In the case of `CCC(=O)CCCCC[C@H](NC(=O)C1=NOC2(CCN(C)CC2)C1)c1ncc(-c2cc3ccncc3nc2OC)o1` [Compound 216], the EC50 is 194 nM under setting [1] and 278 nM under setting [2].

In the case of `CCC(=O)CCCCC[C@H](NCCN(C)C)c1ncc(-c2cc3ccc(C)nc3cc2OC)[nH]1` [Compound 217, (9S)-9-{[2-(dimethylamino)ethyl]amino}-9-[5-(7-methoxy-2-methylquinolin-6-yl)-1H-imidazol-2-yl]nonan-3-one], the concentration for a half-maximal effect (EC50) is, setting by setting: under setting [1], 576 nM; under setting [2], 518 nM.

`CCC(=O)CCCCC[C@H](NC(=O)C1=NOC2(CCN(CC3CC3)CC2)C1)c1ncc(-c2cc3ccc(C)nc3cc2OC)[nH]1` [Compound 219]: the concentration giving a half-maximal response (EC50) under setting [1] was 78 nM and the EC50 under setting [2] was 101 nM.

With `CCC(=O)CCCCC[C@H](NC(=O)[C@H]1CC12CCN(C)CC2)c1ncc(-c2cc(OC)ncc2F)o1` [Compound 220], the EC50 under setting [1] was determined as 3810 nM and the EC50 under setting [2] was found to be 3930 nM.

In the case of `CCC(=O)CCCCC[C@H](NC(=O)C1=NOC2(CCN(C)CC2)C1)c1ncc(-c2cc3ccc(C)nc3cc2F)o1` [Compound 221], the EC50 came to 344 nM under setting [1] and 581 nM under setting [2].

The term EC50 denotes the concentration giving half of the maximal effect.

For the origin of these results see patent US12590099B2, “Inhibitors of histone deacetylase useful for the treatment or prevention of HIV infection” (Merck Sharp & Dohme LLC, priority 2018, dated 2026).
